Results from patent US11690828B2, “Treatment of CNS diseases with sGC stimulators” (Cyclerion Therapeutics, Inc., priority 2016, dated 2023).
pEC50: −log10 of the molar value.

Columns and labels:
[1] = Rat cerebrospinal fluid (CSF) pharmacokinetic properties; format: in vivo; settings: male, Sprague-Dawley; for concentration at 1 h: CSF, PO 10 mg/kg in PEG400, 1 h post-dosing, read-out: CSF Conc (nM @ 1 h); for Kp uu at 1 h: PO 10 mg/kg, unbound CSF / unbound plasma
Procedure: PK in rats was determined following oral dosing. For the oral (PO) experiments, a group of 6 male Sprague-Dawley rats with an indwelling catheter placed in the cisterna magna were used. The PO group was dosed with 3 or 10 mg/kg of a compound formulated as a solution in PEG400. PO doses were administered by oral gavage and delivered to the stomach using a syringe and gavage tube. Following oral dosage administration, the gavage tube was flushed with approximately 0.5 mL of water to ensure complete delivery of the full dose.
Plasma and CSF samples were collected as follows: samples of CSF and blood were collected at 1 hour and 2 hours post-dosing. CSF samples (0.05 mL) were collected through the intracisternal catheter. Blood samples (0.25 mL) were collected through retro-orbital sampling. These samples were kept on ice until processed for plasma. Blood samples were centrifuged at 3200 rpm for 5 minutes at approximately 5° C. within 1 hour of collection. Plasma was directly transferred to a 96-well plate tube (0.125 mL). Plug caps were placed on the tubes and the tubes frozen at approximately −70° C. and stored until analysis.
Plasma was collected and analyzed for the presence of compound.
The compound in question and the internal standard were extracted from plasma and CSF by precipitation. Samples were analyzed using liquid chromatography (LC) with tandem mass spectrometric detection (MS/MS) using electrospray ionization. The standard curve range was from 1 to 1000 ng/mL.
Kp,uu is defined as the concentration ratio of unbound drug in CSF to unbound drug in plasma. Unbound drug in plasma (or free plasma concentration) is calculated by multiplying the total plasma concentration by the unbound fraction as determined by plasma protein binding. The CSF concentration is then divided by the free plasma concentration to determine the Kp,uu. (See e.g., Di et al., J. Med. Chem., 56, 2-12 (2013)).

Healthy rats [2] = assay: Healthy rats - tail flick test; format: in vivo, rat; settings: internal reference Morphine 4 mg/kg s.c.
Procedure: Tail Flick Test. A radiant heat was applied on the tail. When the rat felt discomfort, it reacted by a sudden tail movement (tail flick) which automatically stopped the stimulation and the timer for the measurement by the animal reaction time or nociceptive reaction latency (period from the beginning of the stimulation until detection of the response of the animal). A cut-off was previously fixed at 10 sec in order to prevent tissue damage.
(§1) Testing: 120 minutes after treatment. N=4/model/test. Results are expressed for each group as a percentage of activity calculated from the mean value of the vehicle-treated animals and compared to naïve animals, control paw, or cut-off value, depending on the test.

rats [3] = assay: Brennan model - electronic Von Frey test; format: in vivo, rat; settings: internal reference Morphine 4 mg/kg s.c.
Source text: Brennan Model. Surgery: Surgery was done under gas anesthesia (2.5% isoflurane/3 L/min). For all rats, the plantar aspect of the left hind paw was exposed and a 1 cm longitudinal incision was made using a surgical blade, through the skin and fascia of the plantar aspect of the foot, starting 0.5 cm from the proximal edge of the heel and extending toward the toes. The plantaris muscle was elevated and incised longitudinally whereas the insertions remained intact. After hemostasis with gentle pressure, the skin was stitched up with two sutures. After surgery, animals recovered in their cages.
Electronic Von Frey Test. Tactile allodynia was assessed using the electronic Von Frey test 24 h after surgery. The test requires the application of an increasing pressure onto the plantar aspect of the hind paws. The apparatus exerted a steady force on the hind paws. Reaction thresholds were determined as the pressure (g) required to elicit paw withdrawal. Each reaction threshold measurement was repeated three times for both hind paws with intervals of approximately 2 to 3 mins.
as §1

Healthy rats [4] = assay: Healthy rats - paw pressure test; format: in vivo, rat; settings: internal reference Morphine 4 mg/kg s.c.
Procedure: (§2) Paw Pressure Test. Static mechanical hyperalgesia is measured. This test requires the application of an increasing pressure on the hind paws between a flat surface and a blunt pointer. To evaluate the analgesic action of a compound, one hind paw of the animal was inflamed by an injection or injured by ligation, while the other hind paw was not injured or inflamed. The apparatus exerted a steadily increasing force on the hind paws. The reaction threshold was determined as the pressure (g) required to elicit paw withdrawal and/or vocalization. The animals were gently handled by the experimenter and static mechanical hyperalgesia were assessed two times for both hind paws.
as §1

rats [5] = assay: Bennett model - paw pressure test; format: in vivo, rat; settings: internal reference Morphine 3 mg/kg s.c.
Procedure: as §2
Bennett Model. Peripheral mononeuropathy was induced by loose ligation of the sciatic nerve in anesthetized rats (Xylazine 10 mg/kg i.p., ketamine 60 mg/kg i.p.) on D−14. Briefly, the common sciatic nerve was exposed at the level of the middle of the thigh by blunt dissection through the biceps femoris. Proximal to the sciatic trifurcation, four ligatures were loosely tied around it with about 1-mm spacing. […]
Testing: 120 minutes after treatment. […] Results are expressed for each group as a percentage of activity calculated from the mean value of the vehicle-treated animals and compared to naïve animals, control paw, or cut-off value, depending on the test.

rats [6] = assay: Formalin test - score; format: in vivo, rat; settings: internal reference Morphine 4 mg/kg s.c.
Procedure: Formalin Test. 2.5% formalin solution was injected by subplantar route into the right hind paw. Scoring of pain behavior was performed in rats for 36 minutes every 3 minutes according to the following scores:
0=normal behavior of the injected hind limb to support the body
1=slight touching of the injected paw on the floor to lightly support or not support the body
2=total withdrawal of the injected paw
3=licking, biting or shaking of the injected paw.
as §1

rats [7] = assay: Carrageenan - paw pressure test; format: in vivo, rat; settings: internal reference Indomethacin 30 mg/kg p.o.
Procedure: as §2
Carrageenan. Induction: Three hours before assessment of the nociceptive threshold using the paw pressure test 100 μL of a 2% carrageenan suspension was injected into the plantar aspect of the right hind paw. The Paw Pressure test was then conducted as described above.
as §1

rats [8] = assay: Kaolin - gait score; format: in vivo, rat; settings: internal reference Indomethacin 10 mg/kg p.o.
Procedure: Kaolin. Induction: In rats, unilateral arthritis was induced by an intra-articular injection of a 10% kaolin suspension into the knee joint of the right hind paw under gas anesthesia (3.5% isoflurane/3 L/min). Gait score: The gait score will be evaluated 3 h 30 min after kaolin administration by:
2: intermittent raising of the paw
as §1

sGC = assay: cGMP neuronal cell-based assay; settings: rat primary hippocampal neurons; 30 μM DETA-NO; 50% of high control (10 μM Compound Y); read-out: sGC-neuron Abs EC50
Procedure: Rat primary neurons were isolated from fetuses of 18-day pregnant Sprague-Dawley females. The fetuses were collected in Hanks' balanced salt solution (HBSS) and brains were rapidly removed. The cerebral hippocampi were isolated and mechanically fragmented. Further tissue digestion was performed with 0.25% (wt/vol) trypsin solution in HBSS without Ca2+ and Mg2+ for 15 min at 37° C. After trypsination, cells were washed and resuspended in neurobasal medium supplemented with 0.5 mM L-glutamine, 12.5 uM glutamic acid, 2% B-27 and 100 U/mL penicillin, and 100 μg/mL streptomycin. Cells were plated at a density of 4×10^4 cells/well in a poly-D-lysine coated 384-well flat clear-bottom plate (Corning Cat No 354662). Cells were incubated 6-7 days at 37° C. in a humidified chamber with 5% CO2. Media was removed and cells were washed 1× with HBSS containing Ca2+ and Mg2+, and replaced with 40 uL HBSS containing 0.5 mM IBMX, and incubated for 15 minutes at 37° C. 10 uL of a 5× stock of test compounds with diethylenetriamine NONOate (DETA-NO) was added. Final concentration of DETA-NO was 30 μM. Cells were incubated for 20 min at 37° C. Medium was removed, 50 uL of ice-cold 10% acetic acid was added, and incubated for 60 minutes at 4° C. Following centrifugation at 4° C. for 5 minutes at 1000×g to pellet cell debris, the supernatant was aspirated to a clean plate and the samples were analyzed for cGMP content. cGMP concentrations were determined from each sample using LC-MS/MS.
Data were normalized to a high control using the following equation: 100*(Sample−Low Control)/(High Control−Low Control), where the low control is the average of 15 samples treated with 1% DMSO, and the high control is the average of 15 samples treated with 10 μM of the known sGC stimulator Compound Y (depicted in Example 2). Data were fit using a 4-parameter fit (log(agonist) vs. response—variable slope) using GraphPad Prism Software v.5. n=2 for all compounds. […]

male Long Evans rats = assay: Novel Object Recognition (NOR) test, MK-801-induced memory deficit; format: in vivo, rat

Cc1ncc(Cc2nc(-c3nc(C(F)(F)F)n[nH]3)n3ccccc23)cn1 [Compound I-4]
concentration at 1 h [1]: 180 nM
Kp uu at 1 h [1]: 0.96

CN1CC[C@]23c4c5ccc(O)c4O[C@H]2[C@@H](O)C=C[C@H]3[C@H]1C5 [Morphine, reference compound]
% of activity vs. vehicle, healthy rats tail flick test (Healthy rats [2]): 66%
% of activity vs. vehicle, Brennan model electronic Von Frey test (rats [3]): 88%
% of activity vs. vehicle, healthy rats paw pressure test (Healthy rats [4]): 69%
% of activity vs. vehicle, Bennett model paw pressure test (rats [5]): 191%
% of activity vs. vehicle, formalin test score (early phase) (rats [6]): 57%
% of activity vs. vehicle, formalin test score (late phase) (rats [6]): 38%

COc1ccc2c(c1)c(CC(=O)O)c(C)n2C(=O)c1ccc(Cl)cc1 [Indomethacin, reference compound]
% of activity vs. vehicle, carrageenan paw pressure test (rats [7]): 100%
% of activity vs. vehicle, kaolin gait score (rats [8]): 58%

Fc1ccccc1Cc1nc(-c2nc(C(F)(F)F)n[nH]2)n2ccccc12 [Compound I-3]
pEC50 (sGC): ≥ 7.00

COc1ccc2c3c1O[C@H]1C[C@@H](O)C=C[C@@]31CCN(C)C2 [Galantamine, reference compound]
Recognition Index, Mean (0 to 3 minute time bin) (male Long Evans rats; Galantamine 1 mg/kg IP + MK-801 0.1 mg/kg IP): 73.33%

Fc1ccccc1Cc1nc(-c2nc(C(F)(F)F)n[nH]2)c2cccnn12 [Compound I-6]
concentration at 1 h [1]: 0.78 nM
Kp uu at 1 h [1]: < 0.01

C[C@]12N[C@H](Cc3ccccc31)c1ccccc12 [MK-801, MK-801 (Dizocilpine), reference compound]
Effect on recognition memory, 0-3 minute time range (male Long Evans rats; MK-801 0.1 mg/kg): strong memory deficit
Effect on recognition memory, 0-5 minute time range (male Long Evans rats; MK-801 0.1 mg/kg): strong memory deficit
Recognition Index, Mean (0 to 3 minute time bin) (male Long Evans rats; Vehicle + MK-801 0.1 mg/kg IP, Vehicle + Saline control 73.78): 56.92%
